The source made the active and inactive calls.

Experiment [1] is described as follows: ZM109 Env clade C HIV-1 fusion inhibitors, dose response, HeLa effector, CEM target cells, luciferase, cherry-pick (AID 652058). The experiment is classed as functional, cell-based.
For the next experiment, the target named is T1, Streptokinase A (Streptococcus pyogenes serotype M1, UniProt P10520).
T1 sequence (P10520 whole entry): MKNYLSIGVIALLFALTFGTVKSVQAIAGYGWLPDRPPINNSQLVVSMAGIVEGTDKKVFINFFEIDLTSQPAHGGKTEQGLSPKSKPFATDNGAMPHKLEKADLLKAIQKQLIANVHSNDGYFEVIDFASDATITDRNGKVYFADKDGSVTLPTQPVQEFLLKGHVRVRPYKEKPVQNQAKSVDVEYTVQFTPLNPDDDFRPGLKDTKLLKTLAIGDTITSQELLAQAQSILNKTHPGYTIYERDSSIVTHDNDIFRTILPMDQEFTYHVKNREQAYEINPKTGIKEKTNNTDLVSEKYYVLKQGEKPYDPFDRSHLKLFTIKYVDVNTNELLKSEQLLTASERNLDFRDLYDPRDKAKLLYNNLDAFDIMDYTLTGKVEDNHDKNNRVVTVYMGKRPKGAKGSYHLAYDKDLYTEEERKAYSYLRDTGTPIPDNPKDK
Kind of experiment: S. pyogenes streptokinase expression inhibitors, potency, dose response, plasminogen activation absorbance, OD405 (AID 1914).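 Note: secreted streptokinase activity via plasminogen activation per viability signal from cell pellet.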 It counts as functional, Streptococcus pyogenes M1 GAS.

For experiment [2], the system named is Streptococcus sp. 'group A'. Kind of experiment: growth inhibition of control SK(-) GAS strain, dose response, counter-screen for streptokinase expression inhibitor project, luminescence, kanamycin, BacTiterGlo, confirmation (AID 1900). It counts as functional, organism-based. (The purpose of a counterscreen is to sort out artefacts and off-target activity.)

The next experiment has as its target Mu-type opioid receptor (Homo sapiens, UniProt P35372). Kind of experiment: Counterscreen for agonists of heterodimerization of the mu 1 (OPRM1) and delta 1 (OPRD1) opioid receptors: Luminescence-based cell-based high throughput dose response assay to identify agonists of OPRM1 homodimerization. The experiment is classed as functional.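 Note: U2OS cells expressing OPRM1 and beta-arrestin as split beta-galactosidase partners.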
A further experiment concerns CHO. Briefly: cytotoxicity in TLR9-MyD88 CHO cells, dose response, cytotoxicity control for TLR9-MyD88 binding inhibitor project, cell-based, luminescence (AID 588339).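 Note: CHO cells stably coexpressing TLR9 and MyD88 fusions from primary screen; compound exposure lasted 48 hours before viability readout.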 It counts as functional, hamster. The note with it: Cricetulus griseus.
A short description of experiment [3]: growth suppression of beta-catenin-knockout colon cells, dose response, cell-based, HCT116, human colon tumor (AID 1045).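 Note: HCT116 colon tumor cells with beta catenin knocked out; cells exposed to compound for 60 hours.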 The experiment is classed as functional.
Another experiment in a line: cells. The experiment is classed as functional, cell-based.
In experiment [4] the target is Heat shock protein HSP 90-alpha (Homo sapiens, UniProt P07900). It counts as functional, organism-based.
The subject of a further experiment is BJ. Kind of experiment: cytotoxicity toward BJ-TERT fibroblasts, dose response, cell-based, RAS-independent, luminescence (AID 1933). It counts as functional. The note with it: Homo sapiens.
Experiment [5] addresses T2, Heat shock factor protein 1 (Mus musculus, UniProt P38532).
T2 sequence (P38532 whole entry): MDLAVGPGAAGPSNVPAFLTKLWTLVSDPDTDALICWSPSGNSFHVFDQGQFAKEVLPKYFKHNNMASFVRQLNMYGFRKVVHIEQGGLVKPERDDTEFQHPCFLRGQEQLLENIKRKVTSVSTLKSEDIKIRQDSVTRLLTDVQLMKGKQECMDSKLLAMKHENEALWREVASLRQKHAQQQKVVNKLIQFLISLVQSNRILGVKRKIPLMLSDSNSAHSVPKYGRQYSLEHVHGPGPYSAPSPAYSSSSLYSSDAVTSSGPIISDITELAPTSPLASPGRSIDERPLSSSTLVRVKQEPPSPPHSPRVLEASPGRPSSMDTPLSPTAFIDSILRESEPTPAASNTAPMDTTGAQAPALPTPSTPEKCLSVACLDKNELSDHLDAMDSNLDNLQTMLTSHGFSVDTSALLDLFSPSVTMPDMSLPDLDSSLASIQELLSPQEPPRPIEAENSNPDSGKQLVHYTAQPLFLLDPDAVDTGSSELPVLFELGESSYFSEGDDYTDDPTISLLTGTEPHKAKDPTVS
Briefly: HSF1 potentiators in luciferase reporter cells, confirmation, cell-based, NIH3T3, luminescence, dose retest (AID 435004).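 Note: stress induced by proteasome inhibitor MG132 added 30 min after compound; luciferase reporter driven by HSF1 response element in NIH3T3 cells; actives raise luminescence as potentiators of the MG132 stress response.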 The experiment is classed as functional.

Mu-type opioid receptor, sequence (P35372 whole entry, the tested form may be a part): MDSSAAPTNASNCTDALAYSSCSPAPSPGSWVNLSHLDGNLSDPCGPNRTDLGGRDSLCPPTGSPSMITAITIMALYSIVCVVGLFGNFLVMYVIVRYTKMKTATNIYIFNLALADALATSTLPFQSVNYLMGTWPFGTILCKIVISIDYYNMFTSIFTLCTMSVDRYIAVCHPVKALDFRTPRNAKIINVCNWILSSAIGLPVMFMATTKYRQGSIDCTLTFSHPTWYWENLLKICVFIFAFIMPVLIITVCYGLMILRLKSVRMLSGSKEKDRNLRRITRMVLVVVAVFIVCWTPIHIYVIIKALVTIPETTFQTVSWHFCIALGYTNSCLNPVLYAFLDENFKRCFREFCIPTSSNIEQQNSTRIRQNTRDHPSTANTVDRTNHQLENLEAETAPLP

Usually AC50 stands for the concentration giving half of the maximal activity seen. What is called EC50 is the concentration giving half of the maximal effect. By IC50 is commonly meant the point on the concentration scale where inhibition reaches its midpoint. In the case of `CCc1ccc(Nc2n[n+](-c3ccccc3)c(-c3c(Cl)cccc3Cl)s2)cc1`, the AC50 in [1] was 23.3 µM (active). The EC50 was 7.4 µM (active) on Streptokinase A, 3.58 µM (active) in [2] and > 92.5 µM (inactive) at Mu-type opioid receptor. In addition, in the experiment with CHO, the IC50 was 6.79 µM (active).
As to `CCOC(=O)c1c(C)[nH]c2c1-c1ccccc1C(=O)C2=O`, in experiment [3], the EC50 was 0.403 µM (active).
For the compound `CC(=O)NC(c1ccc2ccccc2c1)c1ccc2cccnc2c1O` (stereo not given), the half-maximal effective concentration (EC50) was > 350 µM (not active) in “cells” and 0.687 µM (active) in the experiment on BJ. The half-maximal activity concentration (AC50) in experiment [4] was 1.98 µM (active).
As to `CCOC(=O)C1=C(c2ccccc2)N=C(N)NC1c1ccc(OCc2ccc(Cl)cc2)c(OC)c1` (stereo not given), the EC50 in experiment [5] was 25 µM (active).

(Values after ChEMBL document CHEMBL1201862, “PubChem BioAssay data set” (2004).)
